Measurements reported in PubChem BioAssay (NCI).
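1) Cells in 96-well plates. 2) Compound, 48 h, 5 concentrations. 3) Linear interpolation between surrounding doses. 4) Unreached endpoint = highest concentration. GI50 marks 50% less growth. TGI denotes the concentration required for complete inhibition of growth.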

Tested on: SK-MEL-2 melanoma
Test: NCI-60 cell line screen, 48 h

| SMILES | GI50 [µM] | TGI [µM] |
| --- | --- | --- |
| COc1ccc2c(c1)c(-c1nc(-c3c[nH]c4ncccc34)cs1)cn2CCCN1CCOCC1 | 1.88 | 3.77 |

Tested on: SK-MEL-28 melanoma
Test: NCI-60 cell line screen, 48 h

| SMILES | GI50 [µM] | TGI [µM] |
| --- | --- | --- |
| CNCc1cccc2c1OCCOCCOCCN(C)S(=O)(=O)c1ccc(cc1)-c1cnc(N)c(n1)C(=O)N2 | 1.74 | 3.56 |
| CN(C)c1ccc(/C=C(\NC(=O)c2ccccc2)C(=O)NC(CC(=O)O)C(=O)O)cc1 (centres undefined) |  | > 100 |
| COC(=O)[C@]1(C)CCC[C@@]2(C)C1CC[C@]13C=C(C(C)C)[C@H](CC21)CC3(Cl)C#N (some centres undefined) |  | > 100 |
| COc1ccc2c(c1)c(-c1nc(-c3c[nH]c4ncccc34)cs1)cn2CCCN1CCOCC1 | 1.95 | 3.83 |
| COC1OC(C)C(NC(=O)OCC(Cl)(Cl)Cl)C2OC(C)(C)OC12 (centres undefined) |  | > 100 |

Tested on: SK-MEL-5 melanoma
Test: NCI-60 cell line screen, 48 h

| SMILES | GI50 [µM] | TGI [µM] |
| --- | --- | --- |
| CNCc1cccc2c1OCCOCCOCCN(C)S(=O)(=O)c1ccc(cc1)-c1cnc(N)c(n1)C(=O)N2 | 1.35 | 2.91 |
| CN(C)c1ccc(/C=C(\NC(=O)c2ccccc2)C(=O)NC(CC(=O)O)C(=O)O)cc1 (centres undefined) |  | > 100 |
| COC(=O)[C@]1(C)CCC[C@@]2(C)C1CC[C@]13C=C(C(C)C)[C@H](CC21)CC3(Cl)C#N (some centres undefined) |  | > 100 |
| COc1ccc2c(c1)c(-c1nc(-c3c[nH]c4ncccc34)cs1)cn2CCCN1CCOCC1 | 1.83 | 3.35 |
| COC1OC(C)C(NC(=O)OCC(Cl)(Cl)Cl)C2OC(C)(C)OC12 (centres undefined) |  | > 100 |

Tested on: SK-OV-3 ovarian
Test: NCI-60 cell line screen, 48 h

| SMILES | GI50 [µM] | TGI [µM] |
| --- | --- | --- |
| CNCc1cccc2c1OCCOCCOCCN(C)S(=O)(=O)c1ccc(cc1)-c1cnc(N)c(n1)C(=O)N2 | 0.389 | 12.8 |
| CN(C)c1ccc(/C=C(\NC(=O)c2ccccc2)C(=O)NC(CC(=O)O)C(=O)O)cc1 (centres undefined) |  | > 100 |
| COC(=O)[C@]1(C)CCC[C@@]2(C)C1CC[C@]13C=C(C(C)C)[C@H](CC21)CC3(Cl)C#N (some centres undefined) |  | > 100 |
| COc1ccc2c(c1)c(-c1nc(-c3c[nH]c4ncccc34)cs1)cn2CCCN1CCOCC1 | 2.83 | 8.28 |
| COC1OC(C)C(NC(=O)OCC(Cl)(Cl)Cl)C2OC(C)(C)OC12 (centres undefined) |  | > 100 |

Tested on: SN12C renal
Test: NCI-60 cell line screen, 48 h

| SMILES | GI50 [µM] | TGI [µM] |
| --- | --- | --- |
| CNCc1cccc2c1OCCOCCOCCN(C)S(=O)(=O)c1ccc(cc1)-c1cnc(N)c(n1)C(=O)N2 | 1.48 | 3.41 |
| CN(C)c1ccc(/C=C(\NC(=O)c2ccccc2)C(=O)NC(CC(=O)O)C(=O)O)cc1 (centres undefined) |  | > 100 |
| COC(=O)[C@]1(C)CCC[C@@]2(C)C1CC[C@]13C=C(C(C)C)[C@H](CC21)CC3(Cl)C#N (some centres undefined) |  | > 100 |
| COc1ccc2c(c1)c(-c1nc(-c3c[nH]c4ncccc34)cs1)cn2CCCN1CCOCC1 | 3.16 | 15.6 |
| COC1OC(C)C(NC(=O)OCC(Cl)(Cl)Cl)C2OC(C)(C)OC12 (centres undefined) |  | > 100 |

Tested on: SNB-19 CNS
Test: NCI-60 cell line screen, 48 h

| SMILES | GI50 [µM] | TGI [µM] |
| --- | --- | --- |
| CNCc1cccc2c1OCCOCCOCCN(C)S(=O)(=O)c1ccc(cc1)-c1cnc(N)c(n1)C(=O)N2 | 2.72 | 8.47 |
| CN(C)c1ccc(/C=C(\NC(=O)c2ccccc2)C(=O)NC(CC(=O)O)C(=O)O)cc1 (centres undefined) |  | > 100 |
| COC(=O)[C@]1(C)CCC[C@@]2(C)C1CC[C@]13C=C(C(C)C)[C@H](CC21)CC3(Cl)C#N (some centres undefined) |  | > 100 |
| COc1ccc2c(c1)c(-c1nc(-c3c[nH]c4ncccc34)cs1)cn2CCCN1CCOCC1 | 2.86 | 8.71 |
| COC1OC(C)C(NC(=O)OCC(Cl)(Cl)Cl)C2OC(C)(C)OC12 (centres undefined) |  | > 100 |

Tested on: SNB-75 CNS
Test: NCI-60 cell line screen, 48 h

| SMILES | GI50 [µM] | TGI [µM] |
| --- | --- | --- |
| CNCc1cccc2c1OCCOCCOCCN(C)S(=O)(=O)c1ccc(cc1)-c1cnc(N)c(n1)C(=O)N2 | 0.218 | 17.6 |
| CN(C)c1ccc(/C=C(\NC(=O)c2ccccc2)C(=O)NC(CC(=O)O)C(=O)O)cc1 (centres undefined) |  | 94.5 |
| COC(=O)[C@]1(C)CCC[C@@]2(C)C1CC[C@]13C=C(C(C)C)[C@H](CC21)CC3(Cl)C#N (some centres undefined) |  | > 100 |
| COc1ccc2c(c1)c(-c1nc(-c3c[nH]c4ncccc34)cs1)cn2CCCN1CCOCC1 | 1.27 | 3.4 |

Tested on: SR leukemia
Test: NCI-60 cell line screen, 48 h

| SMILES | GI50 [µM] | TGI [µM] |
| --- | --- | --- |
| CNCc1cccc2c1OCCOCCOCCN(C)S(=O)(=O)c1ccc(cc1)-c1cnc(N)c(n1)C(=O)N2 | 0.248 | 2.97 |
| CN(C)c1ccc(/C=C(\NC(=O)c2ccccc2)C(=O)NC(CC(=O)O)C(=O)O)cc1 (centres undefined) |  | > 100 |
| COC(=O)[C@]1(C)CCC[C@@]2(C)C1CC[C@]13C=C(C(C)C)[C@H](CC21)CC3(Cl)C#N (some centres undefined) |  | > 100 |
| COc1ccc2c(c1)c(-c1nc(-c3c[nH]c4ncccc34)cs1)cn2CCCN1CCOCC1 | 2.3 | 7 |
| COC1OC(C)C(NC(=O)OCC(Cl)(Cl)Cl)C2OC(C)(C)OC12 (centres undefined) |  | > 100 |

Tested on: SW-620 colon
Test: NCI-60 cell line screen, 48 h

| SMILES | GI50 [µM] | TGI [µM] |
| --- | --- | --- |
| CNCc1cccc2c1OCCOCCOCCN(C)S(=O)(=O)c1ccc(cc1)-c1cnc(N)c(n1)C(=O)N2 | 1.66 | 4.25 |
| CN(C)c1ccc(/C=C(\NC(=O)c2ccccc2)C(=O)NC(CC(=O)O)C(=O)O)cc1 (centres undefined) |  | > 100 |
| COC(=O)[C@]1(C)CCC[C@@]2(C)C1CC[C@]13C=C(C(C)C)[C@H](CC21)CC3(Cl)C#N (some centres undefined) |  | > 100 |
| COc1ccc2c(c1)c(-c1nc(-c3c[nH]c4ncccc34)cs1)cn2CCCN1CCOCC1 | 2.26 | 5.24 |
| COC1OC(C)C(NC(=O)OCC(Cl)(Cl)Cl)C2OC(C)(C)OC12 (centres undefined) |  | > 100 |

Tested on: T-47D breast
Test: NCI-60 cell line screen, 48 h

| SMILES | GI50 [µM] | TGI [µM] |
| --- | --- | --- |
| CNCc1cccc2c1OCCOCCOCCN(C)S(=O)(=O)c1ccc(cc1)-c1cnc(N)c(n1)C(=O)N2 | 2.25 | 6.15 |
| CN(C)c1ccc(/C=C(\NC(=O)c2ccccc2)C(=O)NC(CC(=O)O)C(=O)O)cc1 (centres undefined) |  | > 100 |
| COC(=O)[C@]1(C)CCC[C@@]2(C)C1CC[C@]13C=C(C(C)C)[C@H](CC21)CC3(Cl)C#N (some centres undefined) |  | 55.8 |
| COc1ccc2c(c1)c(-c1nc(-c3c[nH]c4ncccc34)cs1)cn2CCCN1CCOCC1 | 2.07 | 7.83 |
| COC1OC(C)C(NC(=O)OCC(Cl)(Cl)Cl)C2OC(C)(C)OC12 (centres undefined) |  | > 100 |

Tested on: TK-10 renal
Test: NCI-60 cell line screen, 48 h

| SMILES | GI50 [µM] | TGI [µM] |
| --- | --- | --- |
| CNCc1cccc2c1OCCOCCOCCN(C)S(=O)(=O)c1ccc(cc1)-c1cnc(N)c(n1)C(=O)N2 | 2.06 | 20.8 |
| CN(C)c1ccc(/C=C(\NC(=O)c2ccccc2)C(=O)NC(CC(=O)O)C(=O)O)cc1 (centres undefined) |  | > 100 |
| COC(=O)[C@]1(C)CCC[C@@]2(C)C1CC[C@]13C=C(C(C)C)[C@H](CC21)CC3(Cl)C#N (some centres undefined) |  | > 100 |
| COc1ccc2c(c1)c(-c1nc(-c3c[nH]c4ncccc34)cs1)cn2CCCN1CCOCC1 | 3.48 | 13.6 |
| COC1OC(C)C(NC(=O)OCC(Cl)(Cl)Cl)C2OC(C)(C)OC12 (centres undefined) |  | > 100 |

Tested on: U251 CNS
Test: NCI-60 cell line screen, 48 h

| SMILES | GI50 [µM] | TGI [µM] |
| --- | --- | --- |
| CNCc1cccc2c1OCCOCCOCCN(C)S(=O)(=O)c1ccc(cc1)-c1cnc(N)c(n1)C(=O)N2 | 1.53 | 3.37 |
| CN(C)c1ccc(/C=C(\NC(=O)c2ccccc2)C(=O)NC(CC(=O)O)C(=O)O)cc1 (centres undefined) |  | > 100 |
| COC(=O)[C@]1(C)CCC[C@@]2(C)C1CC[C@]13C=C(C(C)C)[C@H](CC21)CC3(Cl)C#N (some centres undefined) |  | 49.4 |
| COc1ccc2c(c1)c(-c1nc(-c3c[nH]c4ncccc34)cs1)cn2CCCN1CCOCC1 | 2.25 | 5.09 |
| COC1OC(C)C(NC(=O)OCC(Cl)(Cl)Cl)C2OC(C)(C)OC12 (centres undefined) |  | > 100 |

Tested on: UACC-257 melanoma
Test: NCI-60 cell line screen, 48 h

| SMILES | GI50 [µM] | TGI [µM] |
| --- | --- | --- |
| CNCc1cccc2c1OCCOCCOCCN(C)S(=O)(=O)c1ccc(cc1)-c1cnc(N)c(n1)C(=O)N2 | 2.69 | 5.64 |
| CN(C)c1ccc(/C=C(\NC(=O)c2ccccc2)C(=O)NC(CC(=O)O)C(=O)O)cc1 (centres undefined) |  | > 100 |
| COC(=O)[C@]1(C)CCC[C@@]2(C)C1CC[C@]13C=C(C(C)C)[C@H](CC21)CC3(Cl)C#N (some centres undefined) |  | > 100 |
| COc1ccc2c(c1)c(-c1nc(-c3c[nH]c4ncccc34)cs1)cn2CCCN1CCOCC1 | 2.04 | 3.81 |
| COC1OC(C)C(NC(=O)OCC(Cl)(Cl)Cl)C2OC(C)(C)OC12 (centres undefined) |  | > 100 |

Tested on: UACC-62 melanoma
Test: NCI-60 cell line screen, 48 h

| SMILES | GI50 [µM] | TGI [µM] |
| --- | --- | --- |
| CNCc1cccc2c1OCCOCCOCCN(C)S(=O)(=O)c1ccc(cc1)-c1cnc(N)c(n1)C(=O)N2 | 1.3 | 2.87 |
| CN(C)c1ccc(/C=C(\NC(=O)c2ccccc2)C(=O)NC(CC(=O)O)C(=O)O)cc1 (centres undefined) |  | > 100 |
| COC(=O)[C@]1(C)CCC[C@@]2(C)C1CC[C@]13C=C(C(C)C)[C@H](CC21)CC3(Cl)C#N (some centres undefined) |  | > 100 |
| COc1ccc2c(c1)c(-c1nc(-c3c[nH]c4ncccc34)cs1)cn2CCCN1CCOCC1 | 1.97 | 4.32 |
| COC1OC(C)C(NC(=O)OCC(Cl)(Cl)Cl)C2OC(C)(C)OC12 (centres undefined) |  | > 100 |

Tested on: UO-31 renal
Test: NCI-60 cell line screen, 48 h

| SMILES | GI50 [µM] | TGI [µM] |
| --- | --- | --- |
| CNCc1cccc2c1OCCOCCOCCN(C)S(=O)(=O)c1ccc(cc1)-c1cnc(N)c(n1)C(=O)N2 | 1.21 | 2.91 |
| CN(C)c1ccc(/C=C(\NC(=O)c2ccccc2)C(=O)NC(CC(=O)O)C(=O)O)cc1 (centres undefined) |  | > 100 |
| COC(=O)[C@]1(C)CCC[C@@]2(C)C1CC[C@]13C=C(C(C)C)[C@H](CC21)CC3(Cl)C#N (some centres undefined) |  | > 100 |
| COc1ccc2c(c1)c(-c1nc(-c3c[nH]c4ncccc34)cs1)cn2CCCN1CCOCC1 | 1.37 | 3.67 |
| COC1OC(C)C(NC(=O)OCC(Cl)(Cl)Cl)C2OC(C)(C)OC12 (centres undefined) |  | > 100 |
